Test results taken from ChEMBL document CHEMBL1201862, “PubChem BioAssay data set” (2004).
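These data come from cells grown in 96-well plates and exposed to compound for 48 hours at five concentrations. At the GI50, growth is halved.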 Active and inactive are the calls of the source. No stated cut-off is given here; in the data, active = GI50 up to about 1.1 µM and inactive = higher.

Legend:
Assay in all cases: NCI tumour cell line growth inhibition, 48 h
786-0 = system: 786-0
A498 = system: A498
A549 = system: A549
ACHN = system: ACHN
BT-549 = system: BT-549
CAKI-1 = system: CAKI-1
CCRF-CEM = system: CCRF-CEM
COLO 205 = system: COLO 205
DU-145 = system: DU-145
EKVX = system: EKVX
HCC 2998 = system: HCC 2998
HCT-116 = system: HCT-116
HCT-15 = system: HCT-15
HOP-62 = system: HOP-62
HOP-92 = system: HOP-92
HT-29 = system: HT-29
Hs-578T = system: Hs-578T
IGROV-1 = system: IGROV-1
K562 = system: K562
KM12 = system: KM12
LOX IMVI = system: LOX IMVI
M14 = system: M14
MCF7 = system: MCF7
MDA-MB-231 = system: MDA-MB-231
MDA-MB-435 = system: MDA-MB-435
MDA-N = system: MDA-N
MOLT-4 = system: MOLT-4
Malme-3M = system: Malme-3M
NCI-H226 = system: NCI-H226
NCI-H23 = system: NCI-H23
NCI-H460 = system: NCI-H460
NCI-H522 = system: NCI-H522
NCI/ADR-RES = system: NCI/ADR-RES
OVCAR-3 = system: OVCAR-3
OVCAR-4 = system: OVCAR-4
OVCAR-5 = system: OVCAR-5
OVCAR-8 = system: OVCAR-8
PC-3 = system: PC-3
RPMI-8226 = system: RPMI-8226
RXF 393 = system: RXF 393
SF-268 = system: SF-268
SF-295 = system: SF-295
SF-539 = system: SF-539
SK-MEL-28 = system: SK-MEL-28
SK-MEL-2 = system: SK-MEL-2
SK-MEL-5 = system: SK-MEL-5
SK-OV-3 = system: SK-OV-3
SN12C = system: SN12C
SNB-19 = system: SNB-19
SNB-75 = system: SNB-75
SR = system: SR
SW-620 = system: SW-620
T47D = system: T47D
TK-10 = system: TK-10
U-251 = system: U-251
UACC-257 = system: UACC-257
UACC-62 = system: UACC-62
UO-31 = system: UO-31
HL-60 = system: HL-60

O=[N+]([O-])C(=C(N1CCCCC1)N1CCCCC1)/C(Cl)=C(\Cl)[N+](=O)[O-]
GI50 (786-0): 3.42 µM (inactive)
GI50 (A498): 17.9 µM (inactive)
GI50 (A549): 19.5 µM (inactive)
GI50 (ACHN): 3.27 µM (inactive)
GI50 (BT-549): 6.95 µM (inactive)
GI50 (CAKI-1): 1.19 µM (inactive)
GI50 (CCRF-CEM): 5.11 µM (inactive)
GI50 (COLO 205): 5.01 µM (inactive)
GI50 (DU-145): 2.88 µM (inactive)
GI50 (EKVX): 13 µM (inactive)
GI50 (HCC 2998): 22.1 µM (inactive)
GI50 (HCT-116): 2.61 µM (inactive)
GI50 (HCT-15): 2.17 µM
GI50 (HOP-62): 15.6 µM (inactive)
GI50 (HOP-92): 2.74 µM (inactive)
GI50 (HT-29): 4.74 µM (inactive)
GI50 (Hs-578T): 4.86 µM (inactive)
GI50 (IGROV-1): 1.72 µM (inactive)
GI50 (K562): 1 µM (active)
GI50 (KM12): 19.4 µM (inactive)
GI50 (LOX IMVI): 2.32 µM (inactive)
GI50 (M14): 8.47 µM (inactive)
GI50 (MCF7): 2.46 µM (inactive)
GI50 (MDA-MB-231): 7.59 µM (inactive)
GI50 (MDA-MB-435): 5.01 µM (inactive)
GI50 (MDA-N): 5.94 µM (inactive)
GI50 (MOLT-4): 1.14 µM (inactive)
GI50 (Malme-3M): 2.37 µM (inactive)
GI50 (NCI-H226): 20.6 µM (inactive)
GI50 (NCI-H23): 5.6 µM (inactive)
GI50 (NCI-H460): 22.5 µM (inactive)
GI50 (NCI-H522): 1.76 µM (inactive)
GI50 (NCI/ADR-RES): 22.7 µM (inactive)
GI50 (OVCAR-3): 3.79 µM (inactive)
GI50 (OVCAR-4): 8.2 µM (inactive)
GI50 (OVCAR-5): 17.9 µM (inactive)
GI50 (OVCAR-8): 10.9 µM (inactive)
GI50 (PC-3): 14.3 µM (inactive)
GI50 (RPMI-8226): 2.18 µM (inactive)
GI50 (RXF 393): 1.31 µM (inactive)
GI50 (SF-268): 12.1 µM (inactive)
GI50 (SF-295): 21.5 µM (inactive)
GI50 (SF-539): 9.1 µM (inactive)
GI50 (SK-MEL-28): 16.8 µM (inactive)
GI50 (SK-MEL-2): 16.9 µM (inactive)
GI50 (SK-MEL-5): 5.69 µM (inactive)
GI50 (SK-OV-3): 23.2 µM (inactive)
GI50 (SN12C): 1.67 µM (inactive)
GI50 (SNB-19): 19.9 µM (inactive)
GI50 (SNB-75): 17.5 µM (inactive)
GI50 (SR): 2.19 µM (inactive)
GI50 (SW-620): 3.36 µM (inactive)
GI50 (T47D): 1.84 µM (inactive)
GI50 (TK-10): 5.41 µM (inactive)
GI50 (U-251): 18.7 µM (inactive)
GI50 (UACC-257): 7.71 µM (inactive)
GI50 (UACC-62): 15 µM (inactive)
GI50 (UO-31): 3.54 µM (inactive)

CCCOC(=O)NC(C)C(=O)NC(CCC(=O)NC(CCCC(N)C(=O)O)C(=O)NC(C)C(=O)O)C(=O)O (stereo not drawn)
GI50 (786-0): 30.2 µM (inactive)
GI50 (A498): > 100 µM (inactive)
GI50 (A549): 74.6 µM (inactive)
GI50 (ACHN): 42.9 µM (inactive)
GI50 (BT-549): 20.7 µM (inactive)
GI50 (CAKI-1): 19.9 µM (inactive)
GI50 (CCRF-CEM): 19.2 µM (inactive)
GI50 (COLO 205): 27.2 µM (inactive)
GI50 (DU-145): 24.4 µM (inactive)
GI50 (EKVX): 49.3 µM (inactive)
GI50 (HCC 2998): 17.1 µM (inactive)
GI50 (HCT-116): 34.4 µM (inactive)
GI50 (HCT-15): 18.1 µM
GI50 (HL-60): 24.8 µM (inactive)
GI50 (HOP-62): > 100 µM (inactive)
GI50 (HOP-92): 29.5 µM (inactive)
GI50 (HT-29): 19.5 µM (inactive)
GI50 (Hs-578T): 15.7 µM (inactive)
GI50 (IGROV-1): 62.2 µM (inactive)
GI50 (KM12): 14.4 µM (inactive)
GI50 (LOX IMVI): 16.6 µM (inactive)
GI50 (M14): 18.3 µM (inactive)
GI50 (MCF7): 39.2 µM (inactive)
GI50 (MDA-MB-231): 19.3 µM (inactive)
GI50 (MDA-MB-435): 56.8 µM (inactive)
GI50 (MDA-N): 21.1 µM (inactive)
GI50 (MOLT-4): 23 µM (inactive)
GI50 (NCI-H23): > 100 µM (inactive)
GI50 (NCI-H460): 38.7 µM (inactive)
GI50 (NCI-H522): 26.8 µM (inactive)
GI50 (NCI/ADR-RES): 19.2 µM (inactive)
GI50 (OVCAR-3): 80.9 µM (inactive)
GI50 (OVCAR-4): 29.4 µM (inactive)
GI50 (OVCAR-5): 41.9 µM (inactive)
GI50 (OVCAR-8): 17.9 µM (inactive)
GI50 (PC-3): 23.9 µM (inactive)
GI50 (RPMI-8226): 12.3 µM (inactive)
GI50 (SF-268): 16.7 µM (inactive)
GI50 (SF-295): 16.6 µM (inactive)
GI50 (SF-539): 14.8 µM (inactive)
GI50 (SK-MEL-28): 19.4 µM (inactive)
GI50 (SK-MEL-2): 54.2 µM (inactive)
GI50 (SK-MEL-5): 15.7 µM (inactive)
GI50 (SN12C): 50.8 µM (inactive)
GI50 (SNB-19): 27.7 µM (inactive)
GI50 (SR): 15.6 µM (inactive)
GI50 (SW-620): 23 µM (inactive)
GI50 (T47D): 18.3 µM (inactive)
GI50 (TK-10): 69.8 µM (inactive)
GI50 (U-251): 25.5 µM (inactive)
GI50 (UACC-257): > 10 µM (inactive)
GI50 (UACC-62): 18.6 µM (inactive)
GI50 (UO-31): 41.8 µM (inactive)

CCNc1nnc(-c2ccccc2Nc2ccccc2-c2nnc(NCC)s2)s1
GI50 (786-0): 11 µM (inactive)
GI50 (A498): 13.5 µM (inactive)
GI50 (A549): 13.5 µM (inactive)
GI50 (ACHN): 7.35 µM (inactive)
GI50 (BT-549): 19.6 µM (inactive)
GI50 (CAKI-1): 2.85 µM (inactive)
GI50 (CCRF-CEM): 4.18 µM (inactive)
GI50 (COLO 205): > 32.8 µM (inactive)
GI50 (DU-145): 4.72 µM (inactive)
GI50 (EKVX): 20.9 µM (inactive)
GI50 (HCC 2998): 11.6 µM (inactive)
GI50 (HCT-116): 9.89 µM (inactive)
GI50 (HCT-15): 4.37 µM
GI50 (HOP-62): 22.2 µM (inactive)
GI50 (HOP-92): 5.92 µM (inactive)
GI50 (HT-29): 10.9 µM (inactive)
GI50 (Hs-578T): 12.3 µM (inactive)
GI50 (IGROV-1): 6.18 µM (inactive)
GI50 (K562): 37.2 µM (inactive)
GI50 (KM12): 9.46 µM (inactive)
GI50 (LOX IMVI): 8.05 µM (inactive)
GI50 (M14): 14.5 µM (inactive)
GI50 (MCF7): 2.28 µM (inactive)
GI50 (MDA-MB-231): 8.02 µM (inactive)
GI50 (MDA-MB-435): 17.4 µM (inactive)
GI50 (MDA-N): 9.73 µM (inactive)
GI50 (MOLT-4): 4.35 µM (inactive)
GI50 (Malme-3M): 19.2 µM (inactive)
GI50 (NCI-H226): 20.2 µM (inactive)
GI50 (NCI-H23): 14 µM (inactive)
GI50 (NCI-H460): 5.66 µM (inactive)
GI50 (NCI-H522): 6.75 µM (inactive)
GI50 (NCI/ADR-RES): 10.5 µM (inactive)
GI50 (OVCAR-3): 18.3 µM (inactive)
GI50 (OVCAR-4): 27.5 µM (inactive)
GI50 (OVCAR-5): 18.2 µM (inactive)
GI50 (OVCAR-8): 13.6 µM (inactive)
GI50 (PC-3): 17 µM (inactive)
GI50 (RPMI-8226): 14 µM (inactive)
GI50 (RXF 393): 21.6 µM (inactive)
GI50 (SF-268): 13.4 µM (inactive)
GI50 (SF-295): 16.3 µM (inactive)
GI50 (SK-MEL-28): 18.4 µM (inactive)
GI50 (SK-MEL-2): 9.77 µM (inactive)
GI50 (SK-MEL-5): 5.52 µM (inactive)
GI50 (SK-OV-3): 9.06 µM (inactive)
GI50 (SN12C): 18.9 µM (inactive)
GI50 (SNB-19): 27.4 µM (inactive)
GI50 (SNB-75): 18.2 µM (inactive)
GI50 (SR): 47.8 µM (inactive)
GI50 (SW-620): 19.4 µM (inactive)
GI50 (T47D): 5.32 µM (inactive)
GI50 (TK-10): 11.4 µM (inactive)
GI50 (U-251): 11.4 µM (inactive)
GI50 (UACC-257): 23.6 µM (inactive)
GI50 (UACC-62): 11.5 µM (inactive)
GI50 (UO-31): 4.71 µM (inactive)
